How the values were obtained:
[1] = tested on: SN12C (renal cancer cell line); assay: NCI-60 single-dose assay; format: cell-based, human; settings: 10^−5 M, single dose
Summary of the method: (§1)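 One-dose NCI-60 screen measuring cytotoxic activity; compounds meeting pre-set threshold inhibition criteria in a minimum number of lines advanced to the five-dose assay.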

[2] = tested on: CAKI-1 (renal cancer cell line); assay: NCI-60 single-dose assay; format: cell-based, human; settings: CAKI-1; 10^−5 M, single dose
Summary of the method: as §1

[3] = tested on: HT29 (colon cancer cell line); assay: NCI-60 single-dose assay; format: cell-based, human; settings: HT29; 10^−5 M, single dose
Summary of the method: as §1

[4] = tested on: BT-549 (breast cancer cell line); assay: NCI-60 single-dose assay; format: cell-based, human; settings: BT-549; 10^−5 M, single dose
Summary of the method: as §1

[5] = tested on: NCI-H522 (non-small cell lung cancer cell line); assay: NCI-60 single-dose assay; format: cell-based, human; settings: NCI-H522; 10^−5 M, single dose
Summary of the method: as §1

[6] = tested on: MOLT-4 (leukemia cell line); assay: NCI-60 single-dose assay; format: cell-based, human; settings: MOLT-4; 10^−5 M, single dose
Summary of the method: as §1

[7] = tested on: NCI-H460 (non-small cell lung cancer cell line); assay: NCI-60 single-dose assay; format: cell-based, human; settings: NCI-H460; 10^−5 M, single dose
Summary of the method: as §1

[8] = tested on: 786-0 (renal cancer cell line); assay: NCI-60 single-dose assay; format: cell-based, human; settings: 786-0; 10^−5 M, single dose
Summary of the method: as §1

[9] = tested on: T-47D (breast cancer cell line); assay: NCI-60 single-dose assay; format: cell-based, human; settings: T-47D; 10^−5 M, single dose
Summary of the method: as §1

[10] = tested on: MCF-7 (breast cancer cell line); assay: NCI-60 single-dose assay; format: cell-based, human; settings: MCF-7, 10^−5 M
Summary of the method: as §1

[11] = tested on: HCT-15 (colon cancer cell line); assay: NCI-60 single-dose assay; format: cell-based, human; settings: HCT-15; 10^−5 M, single dose
Summary of the method: as §1

[12] = tested on: RPMI-8226 (leukemia cell line); assay: NCI-60 single-dose assay; format: cell-based, human; settings: RPMI-8226; 10^−5 M, single dose
Summary of the method: as §1

[13] = tested on: NCI-H226 (non-small cell lung cancer cell line); assay: NCI-60 single-dose assay; format: cell-based, human; settings: NCI-H226; 10^−5 M, single dose
Summary of the method: as §1

[14] = tested on: KM12 (colon cancer cell line); assay: NCI-60 single-dose assay; format: cell-based, human; settings: KM12; 10^−5 M, single dose
Summary of the method: as §1

[15] = tested on: UO-31 (renal cancer cell line); assay: NCI-60 single-dose assay; format: cell-based, human; settings: UO-31; 10^−5 M, single dose
Summary of the method: as §1

[16] = tested on: SW-620 (colon cancer cell line); assay: NCI-60 single-dose assay; format: cell-based, human; settings: SW-620; 10^−5 M, single dose
Summary of the method: as §1

[17] = tested on: CCRF-CEM (leukemia cell line); assay: NCI-60 single-dose assay; format: cell-based, human; settings: 10^−5 M, single dose
Summary of the method: as §1

[18] = tested on: MDA-MB-231/ATCC (breast cancer cell line); assay: NCI-60 single-dose assay; format: cell-based, human; settings: MDA-MB-231/ATCC; 10^−5 M, single dose
Summary of the method: as §1

[19] = tested on: NCI-H23 (non-small cell lung cancer cell line); assay: NCI-60 single-dose assay; format: cell-based, human; settings: NCI-H23; 10^−5 M, single dose
Summary of the method: as §1

[20] = tested on: EKVX (non-small cell lung cancer cell line); assay: NCI-60 single-dose assay; format: cell-based, human; settings: 10^−5 M, single dose
Summary of the method: as §1

[21] = tested on: LOX IMVI (melanoma cell line); assay: NCI-60 single-dose assay; format: cell-based, human; settings: LOX IMVI; 10^−5 M, single dose
Summary of the method: as §1

[22] = tested on: HCT-116 (colon cancer cell line); assay: NCI-60 single-dose assay; format: cell-based, human; settings: HCT-116; 10^−5 M, single dose
Summary of the method: as §1

NCI-60 cell line panel = assay: NCI-60 single-dose assay, whole panel; format: cell-based, human; settings: summary over the panel
Summary of the method: as §1

[23] = tested on: IAV strain A/PR/8/34 (H1N1)

In the case of “N-(3-(4-Benzylpiperazin-1-yl)propyl)-2-chloro-1,4,5,6-tetrahydrobenzo[6,7]cyclohepta[1,2-b]pyrrole-2-carboxamide [Compound 11]”, the “growth inhibition (GI%) and cytotoxicity (negative values)” value (“growth inhibition (GI%) and cytotoxicity” below) [1] is reported as “– (GI% values < 60% and no cytotoxicity)”, the “growth inhibition (GI%) and cytotoxicity” value [2] is reported as 91.53% and the “growth inhibition (GI%) and cytotoxicity” value [3] is reported as 91.03%. The “growth inhibition (GI%) and cytotoxicity” value [4] was “– (GI% values < 60% and no cytotoxicity)”, the “growth inhibition (GI%) and cytotoxicity” value [5] was 82.24% and the “growth inhibition (GI%) and cytotoxicity” value [6] was 99.74%. For the same substance, the “growth inhibition (GI%) and cytotoxicity” value [7] was 98.58%, the “growth inhibition (GI%) and cytotoxicity” value [8] was 72.88% and the “growth inhibition (GI%) and cytotoxicity” value [9] was 66.07%. The “growth inhibition (GI%) and cytotoxicity” value [10] was 90.34%, the “growth inhibition (GI%) and cytotoxicity” value [11] was 84.78% and the “growth inhibition (GI%) and cytotoxicity” value [12] was 92.04%. The “growth inhibition (GI%) and cytotoxicity” value [13] was 64.87%, the “growth inhibition (GI%) and cytotoxicity” value [14] was 78.00% and the “growth inhibition (GI%) and cytotoxicity” value [15] was 63.12%. The “growth inhibition (GI%) and cytotoxicity” value [16] was 86.67%, the “growth inhibition (GI%) and cytotoxicity” value [17] was 76.14% and the “growth inhibition (GI%) and cytotoxicity” value [18] was 61.71%. For the same substance, the “growth inhibition (GI%) and cytotoxicity” value [19] was “– (GI% values < 60% or no cytotoxicity)”, the “growth inhibition (GI%) and cytotoxicity” value [20] was 70.83% and the “growth inhibition (GI%) and cytotoxicity” value [21] was 99.73%. For the same substance, the “growth inhibition (GI%) and cytotoxicity” value [22] was 96.84%, the “growth inhibition (GI%) reached against cancer cell lines of the NCI-60 panel” value (NCI-60 cell line panel) was over 90% and the “IAV/MDCK SI” value ([23]; preliminary screening) was 0.30. For the same substance, the EC50 ([23]; read-out: IAV/MDCK EC50, preliminary screening (50, 5, 0.5 μM), MDCK) was 17.7 µM.

Source: article PMC12566046, “Arylpiperazinyl-Benzocycloheptapyrrole-Carboxamides Endowed with Dual Anticancer and Antiviral Activities” (Molecules, 2025)
